Test results as given in patent publication US20040077602A1, “Mixture composition for controlling ectoparasites” (Meiji Seika Kaisha, Ltd., priority 2002, published 2004).

System: Dermanyssus gallinae
Assay: Miticidal effect against Dermanyssus gallinae (Pasteur pipette residual contact test, Test Example 1)
Type: in vivo
Settings: single agent, sucking adult mites, 25° C.
Description: Miticidal Effect Against Dermanyssus gallinae
The tip of a Pasteur pipette was sealed with Parafilm, and a sample compound diluted with acetone to a designated concentration was poured into the pipette from its top. The Parafilm in the tip of the pipette was removed one min after the pouring to discharge the test solution, and the pipette was air dried. Thereafter, an absorbent cotton was inserted into the upper end of the pipette, and sucking adult mites of Dermanyssus gallinae were released in the pipette. The tip of the pipette was sealed with Hematoseal, and the pipette was then placed in a desiccator containing a saturated ammonium sulfate solution in its bottom and was stored under fully darkened conditions at 25° C. The mites were observed under a stereomicroscope 4 hr after and 24 hr after the treatment to judge whether the mites were dead or survived, followed by determination of the miticidal rate (%).

## CC1(C)C(C=C(Cl)Cl)C1C(=O)OCc1cccc(Oc2ccccc2)c1 (stereo not shown) [Permethrin, permethrin]
50 ppm
  Miticidal rate 4 hr after treatment: 0%
  Miticidal rate 24 hr after treatment: 0%

## COC(=O)Oc1c(C)c(C)nc2ccc(F)c(F)c12 [Compound 25, 2,3-dimethyl-4-methoxycarbonyloxy-5,6-difluoroquinoline]
5 ppm
  Miticidal rate 4 hr after treatment: 70%
  Miticidal rate 24 hr after treatment: 80%

## CC1(C)C(C=C(Cl)Cl)C1C(=O)OC(C#N)c1ccc(F)c(Oc2ccccc2)c1 (stereo not shown) [Cyfluthrin, cyfluthrin]
50 ppm
  Miticidal rate 4 hr after treatment: 0%
  Miticidal rate 24 hr after treatment: 0%

## CCc1nc2ccc(F)c(F)c2c(OC(=O)C2CC2)c1C [Compound 2, 2-ethyl-3-methyl-4-cyclopropanecarbonyloxy-5,6-difluoroquinoline]
5 ppm
  Miticidal rate 4 hr after treatment: 40%
  Miticidal rate 24 hr after treatment: 50%

## CC1(C)C(C=C(Cl)c2ccc(Cl)cc2)C1C(=O)OC(C#N)c1ccc(F)c(Oc2ccccc2)c1 (stereo not shown) [Flumethrin, flumethrin]
50 ppm
  Miticidal rate 4 hr after treatment: 5%
  Miticidal rate 24 hr after treatment: 10%
